# Laboratory results: ChEMBL document CHEMBL1933028, “Discovery of cyclic amine-substituted benzoic acids as PPARα agonists” (Bioorg Med Chem Lett, 2012)
# Assays:
# Type in all cases: cell-based
# [1] = biological target: T1, Peroxisome proliferator-activated receptor delta (Homo sapiens, UniProt Q03181); experiment: Transactivation of human PPARdelta expressed in CHO-K1 cells
# T1 sequence (Q03181 whole entry): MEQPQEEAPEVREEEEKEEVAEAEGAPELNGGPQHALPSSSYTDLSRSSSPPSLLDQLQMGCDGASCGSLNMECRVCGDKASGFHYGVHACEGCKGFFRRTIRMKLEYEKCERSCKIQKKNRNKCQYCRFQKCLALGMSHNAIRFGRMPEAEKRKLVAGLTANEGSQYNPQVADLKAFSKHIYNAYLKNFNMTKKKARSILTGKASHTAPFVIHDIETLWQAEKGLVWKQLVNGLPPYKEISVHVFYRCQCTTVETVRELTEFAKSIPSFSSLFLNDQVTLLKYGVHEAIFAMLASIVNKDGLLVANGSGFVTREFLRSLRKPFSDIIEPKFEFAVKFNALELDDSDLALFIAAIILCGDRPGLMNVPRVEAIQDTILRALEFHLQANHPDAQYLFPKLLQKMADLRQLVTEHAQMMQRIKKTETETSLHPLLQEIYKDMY
# [2] = biological target: T2, Peroxisome proliferator-activated receptor alpha (Homo sapiens, UniProt Q07869); experiment: Transactivation of human PPARalpha expressed in CHO-K1 cells
# T2 sequence (Q07869 whole entry): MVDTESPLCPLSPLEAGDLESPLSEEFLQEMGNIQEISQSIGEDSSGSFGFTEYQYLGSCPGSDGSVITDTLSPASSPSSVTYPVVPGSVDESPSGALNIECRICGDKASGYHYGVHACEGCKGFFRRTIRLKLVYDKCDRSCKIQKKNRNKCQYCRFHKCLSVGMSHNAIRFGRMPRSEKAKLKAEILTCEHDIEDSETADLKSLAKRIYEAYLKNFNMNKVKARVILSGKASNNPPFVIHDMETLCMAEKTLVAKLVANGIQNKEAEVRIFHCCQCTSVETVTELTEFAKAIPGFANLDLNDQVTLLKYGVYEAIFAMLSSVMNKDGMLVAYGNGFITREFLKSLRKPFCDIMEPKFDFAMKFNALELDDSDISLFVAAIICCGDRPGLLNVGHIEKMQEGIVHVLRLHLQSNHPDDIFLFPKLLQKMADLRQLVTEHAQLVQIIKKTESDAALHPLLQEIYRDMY
# [3] = biological target: T3, Peroxisome proliferator-activated receptor gamma (Homo sapiens, UniProt P37231); experiment: Transactivation of human PPARgamma expressed in CHO-K1 cells
# T3 sequence (P37231 whole entry): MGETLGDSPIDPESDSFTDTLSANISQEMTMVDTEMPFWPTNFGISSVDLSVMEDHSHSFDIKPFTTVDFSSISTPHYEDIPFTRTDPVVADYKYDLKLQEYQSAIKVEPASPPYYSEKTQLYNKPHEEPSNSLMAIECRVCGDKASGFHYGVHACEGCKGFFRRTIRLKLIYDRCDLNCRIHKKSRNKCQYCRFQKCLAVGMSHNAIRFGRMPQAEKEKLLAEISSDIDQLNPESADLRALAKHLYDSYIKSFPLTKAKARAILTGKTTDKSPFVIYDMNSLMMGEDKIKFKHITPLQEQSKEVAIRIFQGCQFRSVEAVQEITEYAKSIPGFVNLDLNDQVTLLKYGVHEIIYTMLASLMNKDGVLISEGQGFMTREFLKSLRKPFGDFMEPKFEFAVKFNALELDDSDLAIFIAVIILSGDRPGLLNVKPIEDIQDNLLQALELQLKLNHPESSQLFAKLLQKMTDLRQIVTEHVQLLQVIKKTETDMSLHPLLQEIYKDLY
# [4] = biological target: T1, Peroxisome proliferator-activated receptor delta; experiment: Transactivation of human PPARdelta expressed in CHO-K1 cells at 30 uM
SMILES,EC50 [1],EC50 [2],EC50 [3],EC50 [4]
COc1ccc(-c2cccc(C(=O)O)c2)cc1CNC(=O)c1ccc(Oc2ccccc2)cc1,470 nM,700 nM,5900 nM,–
O=C(O)c1cccc(N2CCCC(CNC(=O)c3ccc(Oc4ccc(F)cc4)cc3)C2)c1 (centres undefined),–,4400 nM,–,–
Cc1nc(-c2ccc(Cl)cc2)sc1C(=O)NCC1CCCN(c2cccc(C(=O)O)c2)C1 (centres undefined),–,760 nM,> 4900 nM,Not Active
Cc1nc(-c2ccc(Cl)cc2)sc1C(=O)NCC1CCN(c2cccc(C(=O)O)c2)CC1,–,> 3500 nM,–,–
Cc1nc(-c2ccc(Cl)cc2)sc1C(=O)NCC1CCN(c2cccc(C(=O)O)c2)C1 (centres undefined),–,850 nM,> 10000 nM,Not Active
Cc1nc(-c2ccc(Cl)cc2)sc1C(=O)NCC1CCCCN(c2cccc(C(=O)O)c2)C1 (centres undefined),–,700 nM,–,–
Cc1nc(-c2ccc(Cl)cc2)sc1C(=O)NCC1CN(c2cccc(C(=O)O)c2)CCO1 (centres undefined),> 17000 nM,810 nM,> 15000 nM,–
Cc1nc(-c2ccc(Cl)cc2)sc1CNC(=O)C1CCCN(c2cccc(C(=O)O)c2)C1 (centres undefined),–,> 14000 nM,–,–
Cc1nc(-c2ccc(Cl)cc2)sc1CC(=O)NC1CCCN(c2cccc(C(=O)O)c2)C1 (centres undefined),–,> 12000 nM,–,–
Cc1nc(-c2ccc(Cl)cc2)sc1C(=O)NC1CCCN(c2cccc(C(=O)O)c2)C1 (centres undefined),> 4200 nM,5 nM,> 10000 nM,–
Cc1nc(-c2ccc(Cl)cc2)sc1NC(=O)C1CCCN(c2cccc(C(=O)O)c2)C1 (centres undefined),–,280 nM,> 13000 nM,Not Active
Cc1nc(-c2ccc(Cl)cc2)sc1C(=O)N(C)C1CCCN(c2cccc(C(=O)O)c2)C1 (centres undefined),–,3400 nM,–,–
Cc1nc(-c2ccc(Cl)cc2)sc1CNC1CCCN(c2cccc(C(=O)O)c2)C1 (centres undefined),> 13000 nM,2400 nM,> 13000 nM,–
Cc1nc(-c2ccc(Cl)cc2)sc1COC1CCCN(c2cccc(C(=O)O)c2)C1 (centres undefined),> 6300 nM,250 nM,> 9700 nM,–
Cc1nc(-c2ccc(Cl)cc2)sc1/C=C/C1CCCN(c2cccc(C(=O)O)c2)C1 (centres undefined),> 8100 nM,120 nM,> 9800 nM,–
Cc1nc(-c2ccc(Cl)cc2)sc1CCC1CCCN(c2cccc(C(=O)O)c2)C1 (centres undefined),> 6800 nM,810 nM,> 6800 nM,–
Cc1nc(-c2ccc(Cl)cc2)sc1C(=O)NC1CCCN(c2ccccc2C(=O)O)C1 (centres undefined),–,> 6000 nM,–,–
Cc1nc(-c2ccc(Cl)cc2)sc1C(=O)NC1CCCN(c2ccc(C(=O)O)cc2)C1 (centres undefined),–,1500 nM,–,–
Cc1nc(-c2ccc(Cl)cc2)sc1C(=O)N[C@@H]1CCCN(c2cccc(C(=O)O)c2)C1,–,1200 nM,> 10000 nM,Not Active
Cc1sc(-c2ccc(Cl)cc2)nc1C(=O)N[C@H]1CCCN(c2cccc(C(=O)O)c2)C1,–,> 3400 nM,–,–
Cc1nc(-c2ccc(Cl)cc2)oc1C(=O)N[C@H]1CCCN(c2cccc(C(=O)O)c2)C1,> 13000 nM,1500 nM,> 12000 nM,–
Cc1nc(-c2ccccc2)sc1C(=O)N[C@H]1CCCN(c2cccc(C(=O)O)c2)C1,7100 nM,72 nM,> 19000 nM,–
Cc1nc(-c2cccc(Cl)c2)sc1C(=O)N[C@H]1CCCN(c2cccc(C(=O)O)c2)C1,2400 nM,26 nM,> 5200 nM,–
Cc1nc(-c2ccccc2Cl)sc1C(=O)N[C@H]1CCCN(c2cccc(C(=O)O)c2)C1,1900 nM,53 nM,> 6800 nM,–
Cc1nc(-c2ccc(F)cc2)sc1C(=O)N[C@H]1CCCN(c2cccc(C(=O)O)c2)C1,8800 nM,21 nM,> 9800 nM,–
Cc1ccc(-c2nc(C)c(C(=O)N[C@H]3CCCN(c4cccc(C(=O)O)c4)C3)s2)cc1,3100 nM,6 nM,> 11000 nM,–
COc1ccc(-c2nc(C)c(C(=O)N[C@H]3CCCN(c4cccc(C(=O)O)c4)C3)s2)cc1,1800 nM,23 nM,> 11000 nM,–
Cc1nc(-c2ccc([N+](=O)[O-])cc2)sc1C(=O)N[C@H]1CCCN(c2cccc(C(=O)O)c2)C1,> 11000 nM,37 nM,> 13000 nM,–
CC[C@@H](Cc1ccc(OC)c(C(=O)NCc2ccc(Oc3ccc(F)cc3)cc2)c1)C(=O)O,1920 nM,13 nM,2500 nM,–
